From ChEMBL document CHEMBL1201862, “PubChem BioAssay data set” (2004)
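Results reflect a 48-hour exposure of cells in 96-well plates to compound at five concentrations. GI50 = concentration required for 50% inhibition of growth.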 Activity calls are given as the source filed them. Rule as the data show it: active = GI50 up to about 1.1 µM and inactive = higher.

Key:
Test in all cases: DTP human tumour cell line panel, 48 h
NCI-H522 = system: NCI-H522
UACC-62 = system: UACC-62
SF-295 = system: SF-295
HOP-62 = system: HOP-62
HCT-116 = system: HCT-116
HOP-92 = system: HOP-92
CAKI-1 = system: CAKI-1
EKVX = system: EKVX
Malme-3M = system: Malme-3M
RXF 393 = system: RXF 393
RPMI-8226 = system: RPMI-8226
NCI-H226 = system: NCI-H226
UACC-257 = system: UACC-257
SF-539 = system: SF-539
SF-268 = system: SF-268
A498 = system: A498
UO-31 = system: UO-31
SNB-75 = system: SNB-75
SK-MEL-2 = system: SK-MEL-2
SN12C = system: SN12C
OVCAR-3 = system: OVCAR-3
PC-3 = system: PC-3
MCF7 = system: MCF7
SK-OV-3 = system: SK-OV-3
Hs-578T = system: Hs-578T
U-251 = system: U-251
COLO 205 = system: COLO 205
SW-620 = system: SW-620
SK-MEL-28 = system: SK-MEL-28
786-0 = system: 786-0
SNB-19 = system: SNB-19
T47D = system: T47D
A549 = system: A549
IGROV-1 = system: IGROV-1
MDA-MB-231 = system: MDA-MB-231
K562 = system: K562
M14 = system: M14
OVCAR-5 = system: OVCAR-5
HCC 2998 = system: HCC 2998
TK-10 = system: TK-10
MOLT-4 = system: MOLT-4
OVCAR-8 = system: OVCAR-8
LOX IMVI = system: LOX IMVI
OVCAR-4 = system: OVCAR-4
HL-60 = system: HL-60
HCT-15 = system: HCT-15
NCI-H23 = system: NCI-H23
NCI-H460 = system: NCI-H460
CCRF-CEM = system: CCRF-CEM
MDA-MB-435 = system: MDA-MB-435
NCI/ADR-RES = system: NCI/ADR-RES
DU-145 = system: DU-145
SK-MEL-5 = system: SK-MEL-5
MDA-N = system: MDA-N
BT-549 = system: BT-549
KM12 = system: KM12
ACHN = system: ACHN
HT-29 = system: HT-29
SR = system: SR

Measured: GI50

CC(C)(C)OC(=O)NCCC1SC2C=CC1C2 (stereo unspecified)
inactive: NCI-H522 > 100 µM | UACC-62 > 100 µM | SF-295 > 100 µM | HOP-62 > 100 µM | HCT-116 > 100 µM | HOP-92 > 100 µM | CAKI-1 > 100 µM | EKVX > 100 µM | Malme-3M > 100 µM | RXF 393 > 100 µM | RPMI-8226 > 100 µM | NCI-H226 > 100 µM | UACC-257 > 100 µM | SF-539 > 100 µM | SF-268 > 100 µM | A498 > 100 µM | UO-31 > 100 µM | SNB-75 > 100 µM | SK-MEL-2 > 100 µM | SN12C > 100 µM | OVCAR-3 > 100 µM | PC-3 > 100 µM | MCF7 > 100 µM | SK-OV-3 > 100 µM | Hs-578T > 100 µM | U-251 > 100 µM | COLO 205 > 100 µM | SW-620 > 100 µM | SK-MEL-28 > 100 µM | 786-0 > 100 µM | SNB-19 > 100 µM | T47D 99.3 µM | A549 > 100 µM | IGROV-1 > 100 µM | MDA-MB-231 > 100 µM | K562 > 100 µM | M14 > 100 µM | OVCAR-5 > 100 µM | HCC 2998 > 100 µM | TK-10 > 100 µM | MOLT-4 > 100 µM | OVCAR-8 > 100 µM | LOX IMVI > 100 µM | OVCAR-4 > 100 µM | HL-60 > 100 µM | NCI-H23 > 100 µM | NCI-H460 > 100 µM | CCRF-CEM > 100 µM | MDA-MB-435 > 100 µM | NCI/ADR-RES > 100 µM | DU-145 > 100 µM | SK-MEL-5 83.2 µM | MDA-N > 100 µM | BT-549 > 100 µM | KM12 > 100 µM | ACHN > 100 µM | HT-29 > 100 µM
> 100 µM: HCT-15

CC(C)[C@@H]1CC[C@@H](C)C[C@H]1OC(=O)c1c2n(c3ccccc13)C[C@H]1OC(C)(C)O[C@@H]21
inactive: UACC-62 18 µM | SF-295 6.46 µM | HOP-62 27.5 µM | HCT-116 4.36 µM | CAKI-1 26.9 µM | EKVX 6.81 µM | Malme-3M 7.64 µM | RXF 393 13.7 µM | RPMI-8226 3.61 µM | NCI-H226 22.3 µM | UACC-257 6.95 µM | SF-268 19.2 µM | UO-31 96.2 µM | SK-MEL-2 > 100 µM | SN12C 24.9 µM | OVCAR-3 18.2 µM | PC-3 5.71 µM | MCF7 14.1 µM | SK-OV-3 21.3 µM | Hs-578T 16.7 µM | U-251 5.14 µM | COLO 205 72.4 µM | SW-620 16.6 µM | SK-MEL-28 46.7 µM | 786-0 16.5 µM | T47D 15.2 µM | A549 18.9 µM | IGROV-1 13 µM | MDA-MB-231 23 µM | K562 4.53 µM | M14 22.9 µM | OVCAR-5 > 100 µM | HCC 2998 26.3 µM | TK-10 18.5 µM | MOLT-4 3.87 µM | OVCAR-8 20.9 µM | LOX IMVI 6.18 µM | OVCAR-4 20.9 µM | HL-60 5.56 µM | NCI-H23 5.77 µM | CCRF-CEM 4.22 µM | MDA-MB-435 30.5 µM | NCI/ADR-RES 13.2 µM | DU-145 20 µM | SK-MEL-5 5.5 µM | MDA-N 19.7 µM | BT-549 61.8 µM | KM12 9.08 µM | ACHN 8.22 µM | HT-29 8.2 µM | SR 3.23 µM
24.7 µM: HCT-15

N#CCCN(CCC#N)c1ccc(/C=C2\N=C(c3ccccc3)N(NC(=O)c3ccncc3)C2=O)cc1
> 100 µM: HCT-15
inactive: UACC-62 > 100 µM | SF-295 > 100 µM | HOP-62 > 100 µM | HCT-116 > 100 µM | HOP-92 > 100 µM | EKVX > 100 µM | RXF 393 > 100 µM | RPMI-8226 > 100 µM | NCI-H226 > 100 µM | UACC-257 > 100 µM | SF-539 > 100 µM | SF-268 > 100 µM | A498 > 100 µM | UO-31 > 100 µM | SK-MEL-2 > 100 µM | SN12C > 100 µM | OVCAR-3 > 100 µM | PC-3 > 100 µM | MCF7 > 100 µM | SK-OV-3 > 100 µM | Hs-578T > 100 µM | U-251 > 100 µM | COLO 205 > 100 µM | SW-620 > 100 µM | SK-MEL-28 > 100 µM | 786-0 > 100 µM | SNB-19 > 100 µM | T47D > 100 µM | A549 > 100 µM | IGROV-1 > 100 µM | MDA-MB-231 > 100 µM | K562 49.2 µM | M14 > 100 µM | OVCAR-5 > 100 µM | TK-10 > 100 µM | MOLT-4 > 100 µM | OVCAR-8 > 100 µM | LOX IMVI > 100 µM | OVCAR-4 > 100 µM | HL-60 36.7 µM | NCI-H460 > 100 µM | MDA-MB-435 69.3 µM | NCI/ADR-RES > 100 µM | DU-145 > 100 µM | SK-MEL-5 > 100 µM | MDA-N > 100 µM | BT-549 > 100 µM | KM12 > 100 µM | ACHN > 100 µM | HT-29 > 100 µM
